In this experiment the target is T1, glutaminase (GAC) (Homo sapiens, UniProt O94925).
T1 sequence (O94925 55-598 isoform O94925-3 limits assumed): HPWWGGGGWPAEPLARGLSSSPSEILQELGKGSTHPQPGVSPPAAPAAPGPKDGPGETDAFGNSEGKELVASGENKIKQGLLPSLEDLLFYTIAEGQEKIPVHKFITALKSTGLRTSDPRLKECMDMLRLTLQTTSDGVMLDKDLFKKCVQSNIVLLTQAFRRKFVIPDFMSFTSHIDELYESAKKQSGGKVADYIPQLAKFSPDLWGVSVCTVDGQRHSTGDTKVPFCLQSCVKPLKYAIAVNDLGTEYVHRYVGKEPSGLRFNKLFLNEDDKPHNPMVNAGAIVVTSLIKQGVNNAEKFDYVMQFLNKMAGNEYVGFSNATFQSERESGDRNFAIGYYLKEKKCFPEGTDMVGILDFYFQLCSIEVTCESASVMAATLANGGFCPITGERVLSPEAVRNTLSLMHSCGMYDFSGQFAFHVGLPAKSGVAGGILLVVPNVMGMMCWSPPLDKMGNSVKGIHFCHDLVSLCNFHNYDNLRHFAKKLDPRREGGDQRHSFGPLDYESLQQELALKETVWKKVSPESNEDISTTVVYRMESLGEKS
As to the kind of experiment: Glutaminase coupled endpoint enzymatic assay (Example A). To be noted: inhibition of glutaminase; assay of Example A or Example B. The class given is biochemical. In a few lines: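 Endpoint coupled assay: glutamate formed by GAC drives GDH NADH production, recycled by diaphorase reducing resazurin to fluorescent resorufin (Ex544/Em590) after SDS stop. Buffer pH 8.5 with phosphate; glutamine at Km; enzyme preincubated with compound 60 min at room temperature.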

For `O=C(Cc1ccc(F)cn1)Nc1nnc([C@H]2CCC[C@H](c3nnc(NC(=O)Cc4ccc(F)cn4)s3)C2)s1` [Compound 240, N,N′-(5,5′-((1S,3S)-cyclohexane-1,3-diyl)bis(1,3,4-thiadiazole-5,2-diyl))bis(2-(5-fluoropyridin-2-yl)acetamide)], the IC50 was < 100 nM. Then `CN(C)c1cccc(CC(=O)Nc2nnc([C@H]3CC[C@H](c4nnc(NC(=O)Cc5cccc(N(C)C)c5)s4)C3)s2)c1` [Compound 285, N,N′-(5,5′-((1S,3S)-cyclopentane-1,3-diyl)bis(1,3,4-thiadiazole-5,2-diyl))bis(2-(3-(dimethylamino)phenyl)acetamide)], with < 100 nM; and `CC(=O)Nc1nnc([C@@H]2CCC[C@@H](c3nnc(NC(=O)Cc4cn(C)c5ccccc45)s3)C2)s1` [Compound 13], with 100 to 500 nM; and `COc1ccc(CC(=O)Nc2nnc([C@@H]3CCCC[C@@H](c4nnc(NC(=O)Cc5ccc(OC)cc5)s4)C3)s2)cc1` [Compound 130], with 1000 to 2000 nM. As for `O=C(Cc1cccc(N2CC(O)C2)n1)Nc1nnc([C@H]2CCC[C@H](c3nnc(NC(=O)Cc4cccc(N5CC(O)C5)n4)s3)C2)s1` [Compound 249, N,N′-(5,5′-((1S,3S)-cyclohexane-1,3-diyl)bis(1,3,4-thiadiazole-5,2-diyl))bis(2-(6-(3-hydroxyazetidin-1-yl)pyridin-2-yl)acetamide)], the figure is < 100 nM; as for `NCc1ccc(CC(=O)Nc2nnc([C@H]3CCC[C@H](c4nnc(NC(=O)Cc5ccc(CN)cn5)s4)C3)s2)nc1` [Compound 243, N,N′-(5,5′-((1S,3S)-cyclohexane-1,3-diyl)bis(1,3,4-thiadiazole-5,2-diyl))bis(2-(5-(aminomethyl)pyridin-2-yl)acetamide)], 100 to 500 nM; as for `CCN(CC)c1ccc(CC(=O)Nc2nnc([C@H]3CCC[C@H](c4nnc(NC(=O)Cc5ccc(N(CC)CC)cc5)s4)C3)s2)cc1` [Compound 237, N,N′-(5,5′-((1S,3S)-cyclohexane-1,3-diyl)bis(1,3,4-thiadiazole-5,2-diyl))bis(2-(4-(diethylamino)phenyl)acetamide)], 500 to 1000 nM.

The values above are taken from patent publication US9029531B2 (Agios Pharmaceuticals, Inc., priority 2012, dated 2015).
